In patent US10463671B2, “Combination therapy for treating cancer” (Epizyme, Inc., priority 2013, dated 2019):

System: glucocorticoid signaling genes in WSU-DLCL2 cells
Assay: RT2 Glucocorticoid Signaling PCR array
Assay type: cell-based
Conditions: WSU cell line, 4 days
Procedure: Gene expression was normalized to array's B2M and fold change compared to DMSO was calculated using the ΔΔCt method.

## CCN(c1cc(-c2ccc(CN3CCOCC3)cc2)cc(C(=O)NCc2c(C)cc(C)[nH]c2=O)c1C)C1CCOCC1 [Compound 44]
  AK2 Ct Values: 21.365
  ANXA4 Ct Values: 24.659
  ARID5B Ct Values: 26.126
  BCL6 Ct Values: 20.795
  CEBPB Ct Values: 26.770
  CREB3L4 Ct Values: 24.392
  EHD3 Ct Values: 24.270
  IL6R Ct Values: 33.814
  MT2A Ct Values: 23.499
  NFKBIA Ct Values: 23.807
  PER2 Ct Values: 24.837
  POU2F2 Ct Values: 22.678
  RASA3 Ct Values: 23.208
  RHOB Ct Values: 27.234
  SLC22A5 Ct Values: 26.640
  SNTA1 Ct Values: 24.181
  SPSB1 Ct Values: 26.952
  TNFAIP3 Ct Values: 26.903
  TSC22D3 Ct Values: 25.390
  ZFP36 Ct Values: 25.541
  ZNF2B1 Ct Values: 23.913
Housekeeping gene
  RPLP0 Ct Values: 15.681
Housekeeping gene, normalized to B2M
  HPRT1 ΔCT (B2M): 3.108
Normalized to B2M
  AMPD3 ΔCT (B2M): 7.477
  GHRHR ΔCT (B2M): 20.272
  GOT1 ΔCT (B2M): 4.142
  SLC10A6 ΔCT (B2M): 15.999
  SLC19A2 ΔCT (B2M): 6.440
  SLC22A5 ΔCT (B2M): 6.955
  ZNF2B1 ΔCT (B2M): 4.228
Normalizer gene, normalized to B2M
  B2M ΔCT (B2M): 0.000
Vs DMSO
  BCL6 ΔΔCT: −0.394
  CREB1 ΔΔCT: 0.008
  CREB3L4 ΔΔCT: −0.915
  CREB3 ΔΔCT: −0.085
  DDIT4 ΔΔCT: −0.060
  GOT1 ΔΔCT: 0.708
  HNRPLL ΔΔCT: −0.037
  IL1RN ΔΔCT: −4.453
  PDP1 ΔΔCT: −0.380
  PIK3R1 ΔΔCT: 0.363
  POU2F2 ΔΔCT: −0.680
  STAT5A ΔΔCT: −0.307
  USP54 ΔΔCT: 0.023
  VLDLR ΔΔCT: 3.859
